{"source": "ChEMBL document CHEMBL4477268", "about": "“2-(4-Fluorophenyl)-quinazolin-4(3H)-one as a novel tyrosinase inhibitor: Synthesis, inhibitory activity, and mechanism” (Bioorg Med Chem, 2016)", "key": {"[1]": {"assay": "Binding affinity to tyrosine assessed as decrease in maximum fluorescence emission intensity of tyrosine at 48 uM by spectrophotometric analysis", "design": "scale not given: the % may be the effect or the level left"}, "[2]": {"target": "T1, Tyrosinase (Agaricus bisporus) (UniProt O42713)", "T1 sequence (whole entry)": "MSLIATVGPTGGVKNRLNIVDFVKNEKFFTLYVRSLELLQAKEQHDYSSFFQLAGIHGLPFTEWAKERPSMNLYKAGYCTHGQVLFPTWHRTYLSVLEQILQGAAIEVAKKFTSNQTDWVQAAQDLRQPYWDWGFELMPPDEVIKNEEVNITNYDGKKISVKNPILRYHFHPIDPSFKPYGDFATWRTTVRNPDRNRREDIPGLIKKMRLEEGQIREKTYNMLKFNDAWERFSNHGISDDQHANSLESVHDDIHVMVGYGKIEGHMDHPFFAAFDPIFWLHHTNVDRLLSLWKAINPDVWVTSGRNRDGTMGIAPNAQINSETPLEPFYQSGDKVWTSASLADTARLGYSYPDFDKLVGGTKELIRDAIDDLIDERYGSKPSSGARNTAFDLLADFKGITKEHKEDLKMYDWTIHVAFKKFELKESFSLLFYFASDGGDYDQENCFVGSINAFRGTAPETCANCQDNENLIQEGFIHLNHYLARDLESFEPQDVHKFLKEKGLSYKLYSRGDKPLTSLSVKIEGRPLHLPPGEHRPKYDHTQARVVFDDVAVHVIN", "assay": "Binding affinity to mushroom tyrosinase assessed as reduction in fluorescence intensity at 0 to 10 uM by fluorescence-spectrophotometric analysis", "design": "scale not given: the % may be the effect or the level left"}, "[3]": {"target": "T2, Tyrosinase (Agaricus bisporus, UniProt O42713)", "T2 sequence (O42713 whole entry)": "T1 sequence (whole entry)", "assay": "Mixed-type reversible inhibition of diphenolase activity of mushroom tyrosinase using L-DOPA as substrate by Lineweaver-Burk double reciprocal-plot analysis"}, "[4]": {"assay": "Binding affinity to L-DOPA assessed as decrease in maximum fluorescence emission intensity of L-DOPA at 48 uM by spectrophotometric analysis", "design": "scale not given: the % may be the effect or the level left"}, "[5]": {"target": "T2, Tyrosinase", "assay": "Mixed-type reversible inhibition of diphenolase activity of mushroom tyrosinase assessed as enzyme-substrate complex using L-DOPA as substrate by Lineweaver-Burk double reciprocal plot analysis"}, "[6]": {"target": "T2, Tyrosinase", "assay": "(§1) Inhibition of diphenolase activity of mushroom tyrosinase using L-DOPA as substrate by spectrophotometric analysis"}, "[7]": {"target": "T1, Tyrosinase (Agaricus bisporus)", "assay": "as §1"}, "[8]": {"target": "T1, Tyrosinase (Agaricus bisporus)", "assay": "Binding affinity to mushroom tyrosinase assessed as reduction in fluorescence intensity by spectrophotometric analysis"}, "[9]": {"target": "T1, Tyrosinase (Agaricus bisporus)", "assay": "Binding affinity to mushroom tyrosinase assessed as induction of red shift in spectra by fluorescence-spectrophotometric analysis"}}, "note": "Active and inactive are the calls of the source. No cut-off for these calls is given here."}
{"smiles": "Oc1nc(-c2ccc(F)cc2)nc2ccccc12", "values": [{"measurement": "Activity", "setting": "[1]", "value": 53.1, "unit": "%"}, {"measurement": "Activity", "setting": "[2]", "value": 77.2, "unit": "%"}, {"measurement": "Ki", "setting": "[3]", "value": 703, "unit": "µM"}, {"measurement": "Activity", "setting": "[4]", "value": 44.8, "unit": "%"}, {"measurement": "Ki", "setting": "[5]", "value": 222, "unit": "µM"}, {"measurement": "IC50", "setting": "[6]", "value": 120, "unit": "µM"}, {"measurement": "inhibition", "setting": "[7]", "value": "Dose-dependent effect"}, {"measurement": "Activity", "setting": "[8]", "value": "Dose-dependent effect"}, {"measurement": "Activity", "setting": "[9]", "value": "Active"}]}
